Assay type in all cases: cell-based
One test deals with T1, αWT α-βV25′A GlyR (Homo sapiens, UniProt P23415+P48167, A277S/G282P/I253M/I257A/I264V/I268L/L252M/M248V/M255V/M274P/P278A/Q254G/S259T/V323A/Y250F).
T1 construct: The α R218-Q219 and β R242-Q243 are also the joining sites for chimeras constructed between the ECD and TMD; expressed in transfected cells; host or cells: HEK293 (ATCC)
The protocol:
(§1) The human GlyR α1 and β subunit cDNAs were subcloned into the pcDNA3.1zeo+ (Invitrogen) or pGEMHE [44] plasmid vectors for expression in HEK293 cells or Xenopus oocytes, respectively. Site-directed mutagenesis and chimera construction were performed using the QuickChange (Stratagene, La Jolla, CA, USA) mutagenesis and multiple-template-based sequential PCR protocols, respectively.
(§2) The effects of the hyperekplexia-mimicking mutations, K24′A, V25′A and Y27′A, were examined on GlyRs expressed in HEK293 cells (ATCC). Details of the HEK293 cell culture, GlyR expression and electrophysiological recording of the HEK293 cells are described elsewhere. Briefly, HEK293 cells were maintained in DMEM supplemented with 10% fetal bovine serum. Cells were transfected using a calcium phosphate precipitation protocol. When co-transfecting the α1 together with the β or any other chimera subunits, their respective cDNAs were combined in a ratio of 1∶10. In addition, the pEGFP-N1 (Clontech) was co-transfected to facilitate identifying the transfected cells. […] Cells were treated with external Ringer's solution and internal CsCl solution [30]. Cells were voltage-clamped at −40 mV. When the heteromeric GlyRs were expressed, the picrotoxin sensitivity was tested to confirm that the majority of receptors are heteromers, [30].
(§3) Results are expressed as mean±standard error of the mean of three or more independent experiments. […] Statistical significance was determined using the Student's t-test.

Another test deals with T2, αV25′A α-βWT GlyR (Homo sapiens, UniProt P23415+P48167, V305A).
T2 construct: The α R218-Q219 and β R242-Q243 are also the joining sites for chimeras constructed between the ECD and TMD; expressed in transfected cells; host or cells: HEK293 (ATCC)
T2 sequence (P23415 29-449 isoform P23415-2 V305A): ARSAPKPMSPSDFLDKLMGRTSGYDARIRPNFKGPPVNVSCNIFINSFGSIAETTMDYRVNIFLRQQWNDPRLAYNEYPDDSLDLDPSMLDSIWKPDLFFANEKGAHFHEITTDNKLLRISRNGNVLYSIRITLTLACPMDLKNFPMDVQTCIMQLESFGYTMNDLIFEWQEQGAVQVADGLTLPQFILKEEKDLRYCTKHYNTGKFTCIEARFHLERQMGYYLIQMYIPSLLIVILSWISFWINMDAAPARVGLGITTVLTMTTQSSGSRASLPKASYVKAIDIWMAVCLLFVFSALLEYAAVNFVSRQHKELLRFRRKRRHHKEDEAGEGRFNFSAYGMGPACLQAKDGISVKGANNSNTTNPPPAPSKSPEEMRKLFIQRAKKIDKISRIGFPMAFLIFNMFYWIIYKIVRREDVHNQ
T2 sequence (P23415+P48167 fused with the stated changes): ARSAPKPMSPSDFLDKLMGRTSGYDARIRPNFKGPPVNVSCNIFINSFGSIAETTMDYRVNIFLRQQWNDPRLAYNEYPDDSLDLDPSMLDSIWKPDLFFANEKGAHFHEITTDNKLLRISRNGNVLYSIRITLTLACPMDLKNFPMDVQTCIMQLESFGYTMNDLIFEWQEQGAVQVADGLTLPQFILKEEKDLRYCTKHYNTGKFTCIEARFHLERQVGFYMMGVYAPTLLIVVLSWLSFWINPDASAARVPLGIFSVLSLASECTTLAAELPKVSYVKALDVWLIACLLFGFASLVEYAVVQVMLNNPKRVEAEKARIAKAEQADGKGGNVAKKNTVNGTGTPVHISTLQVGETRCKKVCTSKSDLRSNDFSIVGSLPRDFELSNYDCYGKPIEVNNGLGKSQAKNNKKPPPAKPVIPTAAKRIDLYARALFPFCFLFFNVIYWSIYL
As to the method: as §1, §2, §3

For another test, the target named is T3, αWT α-βWT GlyR (Homo sapiens, UniProt P23415+P48167, A277S/A316I/A325S/DEL290-297/G282P/I253M/I257A/I264V/I268L/I311L/I313V/INS301ECTTLAAE/L252M/L327V/M248V/M255V/M274P/M315L/P278A/Q254G/R299L/S259T/S324A/T286F/T287S/V317A/V322G/Y250F).
T3 construct: The α R218-Q219 and β R242-Q243 are also the joining sites for chimeras constructed between the ECD and TMD; expressed in transfected cells; host or cells: HEK293 (ATCC)
T3 sequence (P23415+P48167 fused with the stated changes, one chain of several): as the sequence (P23415+P48167 fused with the stated changes) above
The protocol:
as §1, §2, §3

In another test the target is T4, αWT βY27′A GlyR (Homo sapiens, UniProt P23415+P48167, Y325A).
T4 construct: expressed in transfected cells; host or cells: HEK293 (ATCC)
T4 sequence (P48167 23-497 Y325A, one chain of several): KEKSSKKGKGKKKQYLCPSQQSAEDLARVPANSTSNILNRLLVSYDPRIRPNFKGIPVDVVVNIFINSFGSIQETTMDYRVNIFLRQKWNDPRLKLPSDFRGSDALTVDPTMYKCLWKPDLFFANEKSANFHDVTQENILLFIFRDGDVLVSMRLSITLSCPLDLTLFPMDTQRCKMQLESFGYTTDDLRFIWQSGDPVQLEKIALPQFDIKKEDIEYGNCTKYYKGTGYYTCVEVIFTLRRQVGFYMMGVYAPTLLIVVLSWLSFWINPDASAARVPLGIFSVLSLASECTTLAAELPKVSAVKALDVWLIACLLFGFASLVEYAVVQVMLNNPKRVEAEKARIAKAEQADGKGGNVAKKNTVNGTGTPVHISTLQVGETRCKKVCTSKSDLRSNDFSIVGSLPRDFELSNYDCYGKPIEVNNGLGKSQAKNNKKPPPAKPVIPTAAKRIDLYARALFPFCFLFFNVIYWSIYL
As to the method:
as §1, §2, §3

The target in a further test is T5, αWT βV25′A GlyR (Homo sapiens, UniProt P23415+P48167, V323A).
T5 construct: expressed in transfected cells; host or cells: HEK293 (ATCC)
T5 sequence (P48167 23-497 V323A, one chain of several): as the sequence (P48167 23-497 Y325A, one chain of several) above, with V301A, A303Y counted along it
As to the method:
as §1, §2, §3

A further test concerns the target T6, αWT β-αWT GlyR (Homo sapiens, UniProt P23415+P48167, A275I/A296P/F268Y/G272Q/L286I/M270L/M271I/P292M/P300G/S295A/T277S/V266M/V273M/V282I).
T6 construct: The α R218-Q219 and β R242-Q243 are also the joining sites for chimeras constructed between the ECD and TMD; expressed in transfected cells; host or cells: HEK293 (ATCC)
T6 sequence (P23415 29-449 isoform P23415-2): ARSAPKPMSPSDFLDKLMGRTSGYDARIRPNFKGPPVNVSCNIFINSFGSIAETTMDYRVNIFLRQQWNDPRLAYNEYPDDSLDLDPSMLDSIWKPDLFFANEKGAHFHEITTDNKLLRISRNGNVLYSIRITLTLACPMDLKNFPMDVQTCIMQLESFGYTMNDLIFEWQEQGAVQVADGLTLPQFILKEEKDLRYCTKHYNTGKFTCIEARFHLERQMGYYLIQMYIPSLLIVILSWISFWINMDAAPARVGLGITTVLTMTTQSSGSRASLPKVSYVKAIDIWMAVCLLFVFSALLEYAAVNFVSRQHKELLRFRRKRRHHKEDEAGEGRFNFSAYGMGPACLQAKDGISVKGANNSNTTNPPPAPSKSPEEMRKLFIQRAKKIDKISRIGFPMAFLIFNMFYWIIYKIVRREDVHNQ
T6 sequence (P48167+P23415 with tags, fused parts or gaps P48167:V266M/P48167:F268Y/P48167:M270L/P48167:M271I/P48167:G272Q/P48167:V273M/P48167:A275I/P48167:T277S/P48167:V282I/P48167:L286I/P48167:P292M/P48167:S295A/P48167:A296P/P48167:P300G): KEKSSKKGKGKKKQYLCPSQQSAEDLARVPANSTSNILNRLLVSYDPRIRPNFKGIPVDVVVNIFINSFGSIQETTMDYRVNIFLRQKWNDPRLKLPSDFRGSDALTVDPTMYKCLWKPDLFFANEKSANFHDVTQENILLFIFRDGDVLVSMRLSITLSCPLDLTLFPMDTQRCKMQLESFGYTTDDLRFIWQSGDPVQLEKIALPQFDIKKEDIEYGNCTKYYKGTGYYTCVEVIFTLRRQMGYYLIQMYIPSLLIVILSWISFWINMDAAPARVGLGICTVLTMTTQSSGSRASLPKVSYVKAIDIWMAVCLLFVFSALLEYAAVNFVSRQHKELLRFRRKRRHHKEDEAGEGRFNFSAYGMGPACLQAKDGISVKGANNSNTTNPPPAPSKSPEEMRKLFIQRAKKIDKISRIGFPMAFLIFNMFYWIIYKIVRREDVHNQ
As to the method:
as §1
(§4) For the β-α chimeras used for determining the effect of hyperekplexia-mimicking mutations on α1 β GlyR channel function, the Thr at the M2 6′ position was replaced by a Cys. […] Through such a modification, picrotoxin resistance was used to distinguish the heteromeric α1 β-α GlyR from the homomeric α1 GlyR when the α1 and β-α subunits were co-expressed.
as §2, §3

The target in the next test is T7, αV25′A β-αWT GlyR (Homo sapiens, UniProt P23415+P48167, V305A).
T7 construct: The α R218-Q219 and β R242-Q243 are also the joining sites for chimeras constructed between the ECD and TMD; expressed in transfected cells; host or cells: HEK293 (ATCC)
T7 sequence (P23415 29-449 isoform P23415-2 V305A): T6 sequence (P23415 29-449 isoform P23415-2) with V277A
T7 sequence (P48167+P23415 with tags, fused parts or gaps P48167:V266M/P48167:F268Y/P48167:M270L/P48167:M271I/P48167:G272Q/P48167:V273M/P48167:A275I/P48167:T277S/P48167:V282I/P48167:L286I/P48167:P292M/P48167:S295A/P48167:A296P/P48167:P300G): T6 sequence (P48167+P23415 with tags, fused parts or gaps P48167:V266M/P48167:F268Y/P48167:M270L/P48167:M271I/P48167:G272Q/P48167:V273M/P48167:A275I/P48167:T277S/P48167:V282I/P48167:L286I/P48167:P292M/P48167:S295A/P48167:A296P/P48167:P300G)
The protocol: as §1, §4, §2, §3

Where [1] appears, read: αWT α-βV25′A, HEK293, with glycine at EC50 of α1 homomer.
The mark [2] stands for this setting: αV25′A α-βWT, HEK293, with glycine at EC50 of α1 homomer.
Where [3] appears, read: αWT α-βWT, HEK293, with glycine at EC50 of α1 homomer.
Setting [4] is: αWT βY27′A, HEK293, with glycine at EC50 of α1 homomer.
Where [5] appears, read: αWT βV25′A, HEK293, with glycine at EC50 of α1 homomer.
[6] abbreviates: αWT β-αWT, HEK293, with glycine at EC50 of α1 homomer.
Where [7] appears, read: αV25′A β-αWT, HEK293, with glycine at EC50 of α1 homomer.

Positions count from the first letter of the chain named.

T1 sequence (P23415+P48167 fused with the stated changes, one chain of several): as the sequence (P23415+P48167 fused with the stated changes) above, with V277A counted along it

On to picrotoxin [PTX], for which the “10uM PTX inhibition (%)” value at αWT α-βV25′A GlyR (setting [1]) was found to be 3.0±1.3%; on αV25′A α-βWT GlyR (setting [2]) it was 2.9±0.8%; on αWT α-βWT GlyR (setting [3]), 3.8±2.2%; at αWT βY27′A GlyR (setting [4]), 6.3±0.3%; on αWT βV25′A GlyR (setting [5]) it was 5.7±2.2%; on αWT β-αWT GlyR (setting [6]) it was 8.5±1.9%. The “10uM PTX inhibition (%)” value on αV25′A β-αWT GlyR (setting [7]) is on record as 12.0±2.5%. For the same molecule, the “100uM PTX inhibition (%)” value at αWT α-βV25′A GlyR (setting [1]) came to 34±4%; on αV25′A α-βWT GlyR (setting [2]), 21±5%; on αWT α-βWT GlyR (setting [3]) it was 25±2%; at αWT βY27′A GlyR (setting [4]) it was 42±2%; on αWT βV25′A GlyR (setting [5]) it was 36±7%; on αWT β-αWT GlyR (setting [6]), 26±2%. Moreover, the “100uM PTX inhibition (%)” value at αV25′A β-αWT GlyR (setting [7]) is reported as 37±6%.
As to `NCC(=O)O` [glycine], the Imax turned out to be 7.6±1.7 nA on αWT α-βV25′A GlyR; 8.2±1.4 nA at αV25′A α-βWT GlyR; 4.3±0.7 nA on αWT α-βWT GlyR; 8.0±1.3 nA at αWT βY27′A GlyR; 7.7±0.8 nA on αWT βV25′A GlyR; 8.0±2.3 nA at αWT β-αWT GlyR. Further, at αV25′A β-αWT GlyR, the Imax was determined as 8.9±1.5 nA. For the same molecule, the nH is listed as 1.3±0.1 at αWT α-βV25′A GlyR; 0.92±0.04 at αV25′A α-βWT GlyR; 1.3±0.3 on αWT α-βWT GlyR; 2.4±0.1 on αWT βY27′A GlyR; 2.0±0.6 on αWT βV25′A GlyR; 2.4±0.4 at αWT β-αWT GlyR. Moreover, at αV25′A β-αWT GlyR, the nH is on record as 1.7±0.3.

Values taken from publication PMC3222680 (PLoS ONE, 2011).
